Assay results published in patent US11505528B2, “Inhibitors of microbially induced amyloid” (Axial Therapeutics, Inc., priority 2017, dated 2022).
Like-named read-outs stand apart in the source and are kept apart here.

Molecular target: T1, E. coli CsgA (Escherichia coli, UniProt P28307)
T1 construct: 6xHis (C); made in house; host or cells: E. coli NEB 3016 slyD::kan
Experiment: Thioflavin T cell-free assay of CsgA aggregation
Type: biochemical

[1] = read-out: Inhibition of Aggregation, CsgA
[2] = read-out: Inhibition of Aggregation, CsgA (compound activity range)

T1 sequence (P28307 23-151): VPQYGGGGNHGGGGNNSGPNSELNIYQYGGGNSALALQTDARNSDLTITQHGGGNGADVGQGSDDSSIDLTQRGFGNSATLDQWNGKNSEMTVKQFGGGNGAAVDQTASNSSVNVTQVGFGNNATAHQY

SMILES: O=C(Nc1sc2c(c1C(=O)Nc1cc(O)c(O)c(O)c1)CCCC2)c1cc(O)cc(O)c1 [Compound 4, 2-(3,5-dihydroxybenzamido)-N-(3,4,5-trihydroxyphenyl)-4,5,6,7-tetrahydrobenzo[b]thiophene-3-carboxamide]
- inhibition at 20 µM [1]: 43%
- inhibition at 20 µM [2]: 30 to 60%

SMILES: COc1cc(NC(=O)c2c(NC(=O)c3ccccc3)sc3c2CCCC3)cc(OC)c1OC [Compound 11, 2-benzamido-N-(3,4,5-trimethoxyphenyl)-4,5,6,7-tetrahydrobenzo[b]thiophene-3-carboxamide]
- inhibition at 20 µM [1]: -24%
- inhibition at 20 µM [2]: < -10%

SMILES: O=C(Nc1sc2c(c1C(=O)Nc1cc(O)c(O)c(O)c1)CCCC2)c1ccccc1 [Compound 18, 2-benzamido-N-(3,4,5-trihydroxyphenyl)-4,5,6,7-tetrahydrobenzo[b]thiophene-3-carboxamide]
- inhibition at 20 µM [1]: 16%
- inhibition at 20 µM [2]: 10 to 30%

SMILES: O=C(Nc1cc(O)c(O)c(O)c1)c1c[nH]c2cc(O)cc(O)c2c1=O [Compound 22, 5,7-dihydroxy-4-oxo-N-(3,4,5-trihydroxyphenyl)-1,4-dihydroquinoline-3-carboxamide]
- inhibition at 20 µM [1]: 58%
- inhibition at 20 µM [2]: 30 to 60%

SMILES: COc1cc2[nH]cc(C(=O)Nc3ccccc3)c(=O)c2c(OC)c1OC [Compound 30, 5,6,7-trimethoxy-4-oxo-N-phenyl-1,4-dihydroquinoline-3-carboxamide]
- inhibition at 20 µM [1]: -56%
- inhibition at 20 µM [2]: < -10%

SMILES: NC(=O)c1c(NC(=O)c2cc(O)c(O)c(O)c2)sc2c1CCCC2 [Compound 15, 2-(3,4,5-trihydroxybenzamido)-4,5,6,7-tetrahydrobenzo[b]thiophene-3-carboxamide]
- inhibition at 20 µM [1]: 52%
- inhibition at 20 µM [2]: 30 to 60%

SMILES: COc1cc(NC(=O)c2c(NC(=O)c3cc(OC)c(OC)c(OC)c3)sc3c2CCCC3)cc(OC)c1OC [Compound 1, 2-(3,4,5-trimethoxybenzamido)-N-(3,4,5-trimethoxyphenyl)-4,5,6,7-tetrahydrobenzo[b]thiophene-3-carboxamide]
- inhibition at 20 µM [1]: 8%
- inhibition at 20 µM [2]: -10 to 10%

SMILES: COc1cc(OC)c2c(=O)c(C(=O)Nc3ccc(O)cc3)c[nH]c2c1 [Compound 31, N-(4-hydroxyphenyl)-5,7-dimethoxy-4-oxo-1,4-dihydroquinoline-3-carboxamide]
- inhibition at 20 µM [1]: -20%
- inhibition at 20 µM [2]: < -10%

SMILES: COc1cc(C(=O)Nc2sc3c(c2C(=O)O)CCCC3)cc(OC)c1OC [Compound 17, 2-(3,4,5-trimethoxybenzamido)-4,5,6,7-tetrahydrobenzo[b]thiophene-3-carboxylic acid]
- inhibition at 20 µM [1]: 18%
- inhibition at 20 µM [2]: 10 to 30%

SMILES: COc1cc(OC)cc(C(=O)Nc2sc3c(c2C(=O)Nc2cc(OC)c(OC)c(OC)c2)CCCC3)c1 [Compound 3, 2-(3,5-dimethoxybenzamido)-N-(3,4,5-trimethoxyphenyl)-4,5,6,7-tetrahydrobenzo[b]thiophene-3-carboxamide]
- inhibition at 20 µM [1]: -11%
- inhibition at 20 µM [2]: < -10%

SMILES: COc1cc(OC)c2c(=O)c(C(=O)N(C)c3cc(OC)c(OC)c(OC)c3)c[nH]c2c1 [Compound 35, 5,7-dimethoxy-N-methyl-4-oxo-N-(3,4,5-trimethoxyphenyl)-1,4-dihydroquinoline-3-carboxamide]
- inhibition at 20 µM [1]: -53%
- inhibition at 20 µM [2]: < -10%

SMILES: COc1cc2[nH]cc(C(=O)Nc3ccc(O)c(F)c3)c(=O)c2c(OC)c1OC [Compound 34, N-(3-fluoro-4-hydroxyphenyl)-5,6,7-trimethoxy-4-oxo-1,4-dihydroquinoline-3-carboxamide]
- inhibition at 20 µM [1]: -11%
- inhibition at 20 µM [2]: < -10%

SMILES: O=C(Nc1ccccc1)c1c[nH]c2ccccc2c1=O [Compound 45, 4-oxo-N-phenyl-1,4-dihydroquinoline-3-carboxamide]
- inhibition at 20 µM [1]: -18%
- inhibition at 20 µM [2]: < -10%

SMILES: O=C(Nc1cc(O)cc(O)c1)c1c[nH]c2cc(O)cc(O)c2c1=O [Compound 47, N-(3,5-dihydroxyphenyl)-5,7-dihydroxy-4-oxo-1,4-dihydroquinoline-3-carboxamide]
- inhibition at 20 µM [1]: 13%
- inhibition at 20 µM [2]: 10 to 30%

SMILES: COc1cc2[nH]cc(C(=O)Nc3ccccc3O)c(=O)c2c(OC)c1OC [Compound 39, N-(2-hydroxyphenyl)-5,6,7-trimethoxy-4-oxo-1,4-dihydroquinoline-3-carboxamide]
- inhibition at 20 µM [1]: -4%
- inhibition at 20 µM [2]: -10 to 10%

SMILES: O=C(Nc1cccc(O)c1)c1c[nH]c2ccccc2c1=O [Compound 46, N-(3-hydroxyphenyl)-4-oxo-1,4-dihydroquinoline-3-carboxamide]
- inhibition at 20 µM [1]: -7%
- inhibition at 20 µM [2]: -10 to 10%

SMILES: COc1cc(C(=O)Nc2sc3c(c2C(N)=O)CCCC3)cc(OC)c1OC [Compound 12, 2-(3,4,5-trimethoxybenzamido)-4,5,6,7-tetrahydrobenzo[b]thiophene-3-carboxamide]
- inhibition at 20 µM [1]: -23%
- inhibition at 20 µM [2]: < -10%

SMILES: COc1cc(-c2[nH]c3cc(OC)c(OC)c(OC)c3c(=O)c2C(=O)O)cc(OC)c1OC [Compound 36, 5,6,7-trimethoxy-4-oxo-2-(3,4,5-trimethoxyphenyl)-1,4-dihydroquinoline-3-carboxylic acid]
- inhibition at 20 µM [1]: -47%
- inhibition at 20 µM [2]: < -10%

SMILES: COc1cc(NC(=O)c2c(N(C)C(=O)c3cc(OC)c(OC)c(OC)c3)sc3c2CCCC3)cc(OC)c1OC [Compound 13, 2-(3,4,5-trimethoxy-N-methylbenzamido)-N-(3,4,5-trimethoxyphenyl)-4,5,6,7-tetrahydrobenzo[b]thiophene-3-carboxamide]
- inhibition at 20 µM [1]: -16%
- inhibition at 20 µM [2]: < -10%

SMILES: COc1cc(C(=O)Nc2sc3c(c2C(=O)Nc2ccccc2)CCCC3)cc(OC)c1OC [Compound 9, N-phenyl-2-(3,4,5-trimethoxybenzamido)-4,5,6,7-tetrahydrobenzo[b]thiophene-3-carboxamide]
- inhibition at 20 µM [1]: -33%
- inhibition at 20 µM [2]: < -10%

SMILES: COc1cc(C(=O)Nc2sc3c(c2C(=O)N(C)c2cc(OC)c(OC)c(OC)c2)CCCC3)cc(OC)c1OC [Compound 7, N-methyl-2-(3,4,5-trimethoxybenzamido)-N-(3,4,5-trimethoxyphenyl)-4,5,6,7-tetrahydrobenzo[b]thiophene-3-carboxamide]
- inhibition at 20 µM [1]: 2%
- inhibition at 20 µM [2]: -10 to 10%

SMILES: Nc1sc2c(c1C(=O)Nc1cc(O)c(O)c(O)c1)CCCC2 [Compound 16, 2-amino-N-(3,4,5-trihydroxyphenyl)-4,5,6,7-tetrahydrobenzo[b]thiophene-3-carboxamide]
- inhibition at 20 µM [1]: 31%
- inhibition at 20 µM [2]: 30 to 60%

SMILES: COc1cc2[nH]cc(C(=O)Nc3ccc(O)cc3)c(=O)c2c(OC)c1OC [Compound 29, N-(4-hydroxyphenyl)-5,6,7-trimethoxy-4-oxo-1,4-dihydroquinoline-3-carboxamide]
- inhibition at 20 µM [1]: 9%
- inhibition at 20 µM [2]: -10 to 10%

SMILES: COc1cc(OC)c2c(=O)c(C(=O)Nc3ccc(O)c(F)c3)c[nH]c2c1 [Compound 37, N-(3-fluoro-4-hydroxyphenyl)-5,7-dimethoxy-4-oxo-1,4-dihydroquinoline-3-carboxamide]
- inhibition at 20 µM [1]: -17%
- inhibition at 20 µM [2]: < -10%
